# Experiments:
# Assay type in all cases: cell-based
# [1] = test system: Aspergillus flavus; experiment: Antifungal activity, well diffusion method (inhibition zone, MIC)
# Method: To evaluate antimicrobial activity, the fungal strain (Aspergillus flavus), was used. These strains were cultured in nutrient agar and Muller-Hinton medium. Fluconazole compound was used as a standard drug for comparison.
# Antifungal activities of the prepared nano-complex were studied against three fungal cultures using well diffusion method. The tested fungi were inoculated in Sabouraud dextrose broth medium (Hi-Media Mumbai) and incubated at 35° C. for 72 h and subsequently a suspension of about 1.60×10^4-6.00×10^4 c.f.u/ml was introduced agar plates and a sterile glass spreader was used for even distribution of the inoculum. The discs measuring 6 mm in diameter were prepared from Whatman No. 1 filter paper and sterilized by dry heat at 140° C. for 1 h. The sterile discs previously soaked in known concentration of the tested compounds were placed in Sabouraud dextrose Agar (SDA) plates. The plates were inverted and incubated at 35° C. for 7 days. The susceptibility was assessed on the basis of diameter of inhibition against albicans and non-albicans strain of fungi.
# [2] = test system: Escherichia coli(−ve); experiment: Antimicrobial activity, agar well diffusion (inhibition zone, MIC); details: E. coli
# Method: To evaluate antimicrobial activity, the bacterial strain Escherichia coli(−ve), was used. These strains were cultured in a nutrient agar and Muller-Hinton medium. Ofloxacin compound was used as a standard drug for comparison.
# The susceptibilities of such growth rate of microorganisms were measured in vitro by agar well diffusion method. The tested nano complex was dissolved in dimethyl sulfoxide at different concentrations (10 and 20 mg/ml). 1 cm^3 of a 24 h broth culture containing 10^6 CFU/cm^3 was placed in sterile Petri-dishes. Molten nutrient agar (15 cm 3) maintained at 45° C. was then poured into the Petri-dishes and allowed to solidify. Then holes of 6 mm diameter were formed in the agar using a sterile cork borer and these holes were completely filled with the test solutions. The plates were incubated for 24 h at 37° C. After the incubation period, the zone of inhibition of each well was determined by measuring the zones of growth inhibition (mm) against the test microorganisms with zone reader (Hi Antibiotic zone scale). […] The measurements were made in triplicate for each compound and their average values are reported.
# [3] = test system: Breast cancer cells line; experiment: Cytotoxic activity, Sulfo-Rhodamine-B-stain (SRB); details: Homo sapiens, breast cancer cell line, 48 hours
# Method: The anticancer activity was made at the National Cancer Institute, Cancer Biology Department, Pharmacology Department, Cairo University. The absorbance or optical density (O.D.) of each well was measured spectrophotometrically at 564 (nm) with an “ELIZA” micro plate reader (Meter tech. Σ960, “USA”). Evaluation of the cytotoxic activity of the prepared nano-complex was carried out against Breast cancer cells line. The evaluation process was carried out in vitro using the Sulfo-Rhodamine-B-stain (SRB). Cells were placed in 96-multiwell plate (10^4 cells/well) for 24 hours before processing with the complexes to allow attachment of cell to the wall of the plate. Various concentrations of the compounds under test in DMSO (0, 1, 2.5, 5 and 10 μM) were added to the cell monolayer. Monolayer cells were incubated with the complexes for 48 hours at 37° C. and in atmosphere of 5% CO2. After 48 hours, cells were fixed, rinsed, and stained with Sulfo-Rhodamine-B-stain. Excess stain was washed with acetic acid and attached stain was treated with Tris EDTA buffer. Color intensity was measured in an ELISA reader. IC50 was evaluated and potency was calculated with regard to percentage of change of (vistabline standard). The relation between surviving fraction and compound concentration is plotted to get the survival curve of each tumor cell line after the specified compound. […]
smiles,measurement,setting,value
"OC(Cn1cncn1)(Cn1cncn1)c1ccc(F)cc1F [Fluconazol, Fluconazole]",MIC,[1],2 µg/mL
same,inhibition zone,"[1]; well diffusion, 35° C. for 7 days",24 mm
CC1COc2c(N3CCN(C)CC3)c(F)cc3c(=O)c(C(=O)O)cn1c23 (centres unmarked) [Ofloxacin],inhibition zone,"[2]; agar well diffusion, 24 h at 37° C.",35 mm
same,MIC,[2]; Escherichia coli,2.5 µg/mL
CC[C@]1(O)C[C@@H]2CN(CCc3c([nH]c4ccccc34)[C@@](C(=O)OC)(c3cc4c(cc3OC)N(C)[C@H]3[C@@](O)(C(=O)OC)[C@H](OC(C)=O)[C@]5(CC)C=CCN6CC[C@]43[C@@H]65)C2)C1 [vinblastine],IC50,[3],4.5 µg/mL

# From US11897902B1, “Nano-sized mixed ligand [4-bromo-2-(quinolin-2-yliminomethyl)-phenol imine- phenanthroline] Ru(III) complex for medicinal applications” (KING FAISAL UNIVERSITY, priority 2023, dated 2024)
